Values of other authors, collected in patent publication US5635503A, “Dihydropyridine npy antagonists: piperazine derivatives” (Bristol-Myers Squibb Company, priority 1995, dated 1997).

Assays:
[1] = test system: NPY-related increases in diastolic blood pressure; settings: anesthetized guinea pig model
[2] = test system: vasoconstrictive activity of the NPY1 agonist [Leu31, Pro34]NPY
[3] = test system: rat femoral artery
[4] = biological target: T1, Y2 receptor (Rattus norvegicus, UniProt Q9ERC0); settings: functional selectivity for the Y2 receptor
T1 sequence (Q9ERC0 1-381): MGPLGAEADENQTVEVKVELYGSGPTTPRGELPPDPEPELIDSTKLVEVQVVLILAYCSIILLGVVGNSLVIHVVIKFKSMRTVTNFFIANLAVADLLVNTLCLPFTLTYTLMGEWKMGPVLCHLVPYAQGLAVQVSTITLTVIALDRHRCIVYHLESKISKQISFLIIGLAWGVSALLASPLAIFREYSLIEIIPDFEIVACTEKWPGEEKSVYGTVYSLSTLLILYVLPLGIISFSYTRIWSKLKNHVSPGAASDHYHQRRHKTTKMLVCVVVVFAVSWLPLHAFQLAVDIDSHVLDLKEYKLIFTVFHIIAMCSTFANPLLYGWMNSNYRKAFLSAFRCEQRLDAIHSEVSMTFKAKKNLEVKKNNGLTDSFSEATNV

effect on the NPY2 agonist NPY13-36 [4]	SMILES	antagonism of NPY-related increases in diastolic blood pressure [1]	effect on vasoconstrictive activity of the NPY1 agonist [Leu31, Pro34]NPY [2]	functional antagonism [3]
–	CN(C)CC1CCC(CNC(=N)c2ccc(CC(NC(=O)C(Cc3ccccc3)NS(=O)(=O)c3ccc4ccccc4c3)C(=O)N3CCCC3)cc2)CC1 (stereo not shown) [SR 120819A]	antagonized	–	–
antagonized the effect	N=C(N)N(CCCCCCNCc1ccc2ccccc2c1)CCCCCCN(CCCCCCNCc1ccc2ccccc2c1)C(=N)N [Example 6b]	–	had no effect	display functional antagonism
